Test results taken from patent publication US8883801B2, “Substituted pyrazolo[1,5-a]pyrimidines as mTOR inhibitors” (Merck Sharp & Dohme Corp., priority 2010, dated 2014).
pIC50: −log10 of the molar value.

The compounds below were run against human mTOR enzyme (Homo sapiens, UniProt P42345) (assay: HTRF mTOR enzyme (kinase) assay). Settings: rated class; 5 μM ATP, 0.2 μM GST-S6K; read-out: hMTOR IC50.
Type: biochemical
Protocol: Methods: An HTRF mTOR enzyme assay was developed to assess the compounds' inhibitory activity. The mTOR assay buffer contained 10 mM Hepes (pH 7.4), 50 mM NaCl, […] BSA, 50 mM […], 10 mM MnCl2 and 0.5 mM DTT. […] 20 ng of human mTOR enzyme (<5% pure was preincubated with the compound for 10 minutes followed by the addition of 5 μM ATP and 0.2 μM GST-S6K (Zhang et al., Protein Expression and Purification 46, pp 414-420 (2006)). The reaction was incubated for one hour at 30° C. Anti phospho p70-S6K(Thr389) (˜1.7 ng/well, anti-phospho-p70S6K-cryptate (Pho-p70S6-Kin-K cat#64CUSKAY, from Cisbio)) and anti GST-XL665 (1:1 Ratio with the substrate GST-S6K, anti GST-XL665, cat#61GSTXLB) Cisbio) were added after the reaction was stopped. The plates were read (PHERAstar, BMG) at least 2 hours after adding the anti phospho p70-S6K and the anti GST-XL665.
IC50 DETERMINATIONS: Dose-response curves were plotted from the inhibition data generated, each in duplicate, from 8 point serial dilutions of inhibitory compounds. Concentration of compound was plotted against the HTRF em665/em590 ratio signal. To generate IC50 values, the dose-response curves were fitted to a standard sigmoidal curve and IC50 values were derived by nonlinear regression analysis.

Chain of human mTOR enzyme (P42345 1360-2549 limits assumed): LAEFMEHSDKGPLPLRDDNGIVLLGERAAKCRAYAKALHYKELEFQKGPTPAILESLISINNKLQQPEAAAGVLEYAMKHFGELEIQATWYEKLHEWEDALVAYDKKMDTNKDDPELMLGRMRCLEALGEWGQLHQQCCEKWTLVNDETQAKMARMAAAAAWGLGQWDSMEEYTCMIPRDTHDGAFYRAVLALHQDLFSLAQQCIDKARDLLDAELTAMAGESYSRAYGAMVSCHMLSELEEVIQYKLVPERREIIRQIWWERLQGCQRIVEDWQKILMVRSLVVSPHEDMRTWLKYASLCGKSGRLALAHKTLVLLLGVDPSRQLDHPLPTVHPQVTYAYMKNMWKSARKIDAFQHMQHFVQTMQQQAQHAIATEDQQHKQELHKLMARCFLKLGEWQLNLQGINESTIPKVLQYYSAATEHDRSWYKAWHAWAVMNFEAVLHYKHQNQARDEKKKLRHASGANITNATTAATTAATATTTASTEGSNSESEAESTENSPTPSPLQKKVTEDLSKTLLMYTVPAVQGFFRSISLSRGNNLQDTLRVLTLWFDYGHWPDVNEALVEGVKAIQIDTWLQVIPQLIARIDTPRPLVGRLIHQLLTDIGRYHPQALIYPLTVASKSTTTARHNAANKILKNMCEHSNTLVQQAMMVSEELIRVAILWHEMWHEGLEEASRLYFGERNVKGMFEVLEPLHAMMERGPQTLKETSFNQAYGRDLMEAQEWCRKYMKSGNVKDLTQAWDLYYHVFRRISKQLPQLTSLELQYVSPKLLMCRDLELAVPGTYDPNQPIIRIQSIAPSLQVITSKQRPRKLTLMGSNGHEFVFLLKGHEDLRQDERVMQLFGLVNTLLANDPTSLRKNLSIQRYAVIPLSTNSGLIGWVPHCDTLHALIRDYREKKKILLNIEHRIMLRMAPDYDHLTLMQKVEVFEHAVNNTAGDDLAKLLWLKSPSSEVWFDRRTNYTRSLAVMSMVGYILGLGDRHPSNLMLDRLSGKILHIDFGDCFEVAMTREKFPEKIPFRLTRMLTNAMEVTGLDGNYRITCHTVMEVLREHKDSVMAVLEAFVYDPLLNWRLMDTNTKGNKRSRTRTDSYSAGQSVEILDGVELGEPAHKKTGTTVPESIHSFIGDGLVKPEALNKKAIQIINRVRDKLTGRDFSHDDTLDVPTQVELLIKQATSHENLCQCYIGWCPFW

First: COC[C@]1(O)CC[C@H](c2nc3c(-c4ccc(-c5ccccc5)nc4)cnn3c(N)c2Br)CC1 [Compound 163, (1R,4R)-4-(7-amino-6-bromo-3-(6-phenylpyridin-3-yl)pyrazolo[1,5-a]pyrimidin-5-yl)-1-(methoxymethyl)cyclohexanol]
Second: CO[C@]1(CC(=O)O)CC[C@H](c2nc3c(-c4ccc(-c5ccccc5)nc4)cnn3c(N)c2Br)CC1 [Compound 80, 2-((1S,4S)-4-(7-amino-6-bromo-3-(6-phenylpyridin-3-yl)pyrazolo[1,5-a]pyrimidin-5-yl)-1-methoxycyclohexyl)acetic acid]
The pIC50 of the first is higher: 7.00 to 9.00 for the first, 6.00 to 7.00 for the second.

`COCCONC(=O)[C@]1(OCCOC)CC[C@H](c2nc3c(-c4cnn(-c5ccccc5)c4)cnn3c(N)c2S(C)(=O)=O)CC1` [Compound 101] and `CCONC(=O)[C@]1(OCCOC)CC[C@H](c2nc3c(-c4cnn(-c5ccccc5)c4)cnn3c(N)c2S(C)(=O)=O)CC1` [Compound 98, (1R,4R)-4-(7-amino-6-(methylsulfonyl)-3-(1-phenyl-1H-pyrazol-4-yl)pyrazolo[1,5-a]pyrimidin-5-yl)-N-ethoxy-1-(2-methoxyethoxy)-cyclohexane-carboxamide] fall in the same range of pIC50: 7.00 to 9.00 for the first, 7.00 to 9.00 for the second.

`COC(=O)c1cc(-c2ccc(-c3cnn4c(N)c(C(C)=O)c([C@H]5CC[C@](O)(CO)CC5)nc34)cn2)ccc1OC` [Compound 154, methyl 5-(5-(6-acetyl-7-amino-5-((1S,4S)-4-hydroxy-4-(hydroxymethyl)-cyclohexyl)-pyrazolo-[1,5-a]pyrimidin-3-yl)pyridin-2-yl)-2-methoxybenzoate] and `COC(=O)c1cccc(-c2ccc(-c3cnn4c(N)c(C(C)=O)c(C5CCC(O)(CO)CC5)nc34)cn2)c1` (stereo not drawn) [Compound 150, methyl 3-(5-(6-acetyl-7-amino-5-(4-hydroxy-4-(hydroxymethyl)-cyclohexyl)-pyrazolo-[1,5-a]pyrimidin-3-yl)pyridin-2-yl)benzoate] fall in the same range of pIC50: 7.00 to 9.00 for the first, 7.00 to 9.00 for the second.

`CC(=O)c1c(N)n2ncc(-c3cnn(-c4cnn(C)c4)c3)c2nc1[C@H]1CC[C@](O)(CO)CC1` [Compound 149, 1-(7-amino-5-((1S,4S)-4-hydroxy-4-(hydroxymethyl)-cyclohexyl)-3-(1′-methyl-1′H-1,4′-bipyrazol-4-yl)pyrazolo[1,5-a]pyrimidin-6-yl)ethanone] and `COC[C@]1(C(=O)O)CC[C@H](c2nc3c(-c4cnn(-c5ccccc5)c4)cnn3c(N)c2C(C)=O)CC1` [Compound 20, (1R,4R)-4-(6-acetyl-7-amino-3-(1-phenyl-1H-pyrazol-4-yl)pyrazolo[1,5-a]pyrimidin-5-yl)-1-(methoxymethyl)-cyclohexane-carboxylic acid] fall in the same range of pIC50: 6.00 to 7.00 for the first, 6.00 to 7.00 for the second.

`COCCO[C@]1(C(=O)O)CC[C@@H](c2nc3c(-c4ccc(-c5ccn(C)n5)[n+]([O-])c4)cnn3c(N)c2S(C)(=O)=O)CC1` [Compound 45, 5-(7-amino-5-((1R,4R)-4-carboxy-4-(2-methoxyethoxy)cyclohexyl)-6-(methylsulfonyl)-pyrazolo[1,5-a]pyrimidin-3-yl)-2-(1-methyl-1H-pyrazol-3-yl)pyridine 1-oxide] and `COCCO[C@]1(C(=O)O)CC[C@@H](c2nc3c(-c4cnc(-c5ccn(C)n5)nc4)cnn3c(N)c2S(C)(=O)=O)CC1` [Compound 49, (1R,4R)-4-(7-amino-3-(2-(1-methyl-1H-pyrazol-3-yl)pyrimidin-5-yl)-6-(methylsulfonyl)-pyrazolo[1,5-a]-pyrimidin-5-yl)-1-(2-mcthoxyethoxy)-cyclohexanecarboxylic acid] fall in the same range of pIC50: 7.00 to 9.00 for the first, 7.00 to 9.00 for the second.

`COCCO[C@]1(C(=O)c2nnc[nH]2)CC[C@H](c2nc3c(-c4ccc(-c5ccccc5)nc4)cnn3c(N)c2S(C)(=O)=O)CC1` [Compound 124, ((1S,4S)-4-(7-amino-6-(methylsulfonyl)-3-(6-phenylpyridin-3-yl)pyrazolo[1,5-a]pyrimidin-5-yl)-1-(2-methoxyethoxy)cyclohexyl)(4H-1,2,4-triazol-3-yl)methanone] and `COCCO[C@]1(C(=O)CO)CC[C@@H](c2nc3c(-c4ccc(-c5ccccc5)nc4)cnn3c(N)c2S(C)(=O)=O)CC1` [Compound 130, 1-((1R,4R)-4-(7-amino-6-(methylsulfonyl)-3-(6-phenylpyridin-3-yl)pyrazolo[1,5-a]pyrimidin-5-yl)-1-(2-methoxyethoxy)cyclohexyl)-2-hydroxyethanone] fall in the same range of pIC50: 7.00 to 9.00 for the first, 7.00 to 9.00 for the second.

First: COCCO[C@]1(C(=O)O)CC[C@@H](c2nc3c(-c4cnn(-c5ccc(S(C)(=O)=O)cc5)c4)cnn3c(N)c2S(C)(=O)=O)CC1 [Compound 53, (1R,4R)-4-(7-amino-6-(methylsulfonyl)-3-(1-(4-(methylsulfonyl)phenyl)-1H-pyrazol-4-yl)pyrazolo[1,5-a]pyrimidin-5-yl)-1-(2-methoxyethoxy)cyclohexanecarboxylic acid]
Second: COCCO[C@]1(C(=O)N(C)OC)CC[C@@H](c2nc3c(-c4cnn(-c5ccccc5)c4)cnn3c(N)c2S(C)(=O)=O)CC1 [Compound 97, (1R,4R)-4-(7-amino-6-(methylsulfonyl)-3-(1-phenyl-1H-pyrazol-4-yl)pyrazolo[1,5-a]pyrimidin-5-yl)-N-methoxy-1-(2-methoxyethoxy)-N-methylcyclohexane-carboxamide]
The pIC50 of the first is lower: 6.00 to 7.00 for the first, 7.00 to 9.00 for the second.

`COCCO[C@]1(C(=O)c2nnc[nH]2)CC[C@H](c2nc3c(-c4cnn(-c5ccccc5)c4)cnn3c(N)c2S(C)(=O)=O)CC1` [Compound 123, ((1S,4S)-4-(7-amino-6-(methylsulfonyl)-3-(1-phenyl-1H-pyrazol-4-yl)pyrazolo[1,5-a]pyrimidin-5-yl)-1-(2-methoxyethoxy)cyclohexyl)(4H-1,2,4-triazol-3-yl)methanone] and `COCCO[C@]1(C(=O)NOCC2CC2)CC[C@@H](c2nc3c(-c4cnn(-c5ccccc5)c4)cnn3c(N)c2S(C)(=O)=O)CC1` [Compound 99, (1R,4R)-4-(7-amino-6-(methylsulfonyl)-3-(1-phenyl-1H-pyrazol-4-yl)pyrazolo[1,5-a]pyrimidin-5-yl)-N-(cyclopropylmethoxy)-1-(2-methoxyethoxy)-cyclohexane-carboxamide] fall in the same range of pIC50: 7.00 to 9.00 for the first, 7.00 to 9.00 for the second.

First: CO[C@]1(CC(=O)O)CC[C@@H](c2nc3c(-c4ccc(-c5ccccc5)nc4)cnn3c(N)c2Br)CC1 [Compound 81]
Second: CC(=O)c1c(C2CCC(O)(CO)CC2)nc2c(-c3ccc(-c4cccc(C(=O)O)c4)nc3)cnn2c1N (stereo not drawn) [Compound 151, 3-(5-(6-acetyl-7-amino-5-(4-hydroxy-4-(hydroxymethyl)-cyclohexyl)-pyrazolo-[1,5-a]pyrimidin-3-yl)pyridin-2-yl)benzoic acid]
The pIC50 of the first is lower: 6.00 to 7.00 for the first, 7.00 to 9.00 for the second.

`COCC1(CO)CCC(c2nc3c(-c4cnn(-c5ccccc5)c4)cnn3c(N)c2Br)CC1` (stereo not drawn) [Compound 167, (4-(7-amino-6-bromo-3-(1-phenyl-1H-pyrazol-4-yl)pyrazolo[1,5-a]pyrimidin-5-yl)-1-(methoxymethyl)-cyclohexyl)methanol] and `COCCO[C@]1(C(=O)O)CC[C@H](c2nc3c(-c4ccc(-c5cscn5)nc4)cnn3c(N)c2C(C)=O)CC1` [Compound 61, (1S,4S)-4-(6-acetyl-7-amino-3-(6-(thiazol-4-yl)pyridin-3-yl)pyrazolo[1,5-a]pyrimidin-5-yl)-1-(2-methoxyethoxy) cyclohexanecarboxylic acid] fall in the same range of pIC50: 7.00 to 9.00 for the first, 7.00 to 9.00 for the second.

Compound `COCCO[C@]1(C(=O)O)CC[C@H](c2nc3c(-c4ccc(-c5nccs5)nc4)cnn3c(N)c2C(C)=O)CC1` [Compound 59] has a pIC50 of 7.00 to 9.00.
